Experimental data published in US9518052B2, “Pyrazolopyridines and pyrazolopyrimidines” (Pfizer Inc., priority 2014, dated 2016).
pIC50: −log10 of the molar value. Read-outs that look alike come from different tables or passages of the source.

Assays:
[1] = tested on: rhIFNγ stimulated STAT-3 phosphorylation in the A549 human epithelial cell line; test: A549 Cell Assay: Inhibition of pSTAT3; assay type: cell-based; conditions: A549 cells
Procedure: A549 Cell Assay: Inhibition of pSTAT3
An assay measuring the efficacy of JAK inhibitors on the functional response of recombinant human interferon γ (rhIFNγ) stimulated STAT-3 phosphorylation in the A549 human epithelial cell line.
A549 cells (ATCC #CCL-185), were plated at 30,000 cells/well in 96 well flat bottomed tissue culture plates (BD#353072) in 200 μL of growth medium (DMEM, Pfizer media prep, with 10% Fetal Bovine Serum, Sigma #F4135, 2 mM L-Glutamine, Pfizer media prep, 100 U/mL penicillin, Pfizer media prep, and 200 μg/ml streptomycin, Pfizer media prep), and cultured at 37° C., 5% CO2 incubator for 18 hours. Growth medium was removed by vacuum aspiration (V&P Scientific #vp187 bp-60), and 90 μL of pre-warmed assay medium (DMEM with 0.2% BSA, Miltenyi #130-091-376) was added to each well and incubated for 15 minutes at 37° C. 10 μL of vehicle control or test compound (final concentration range of 0.3 nM to 10 μM with 0.1% DMSO) was added to the cells. Plates were incubated at 37° C. for 1 hour. After compound incubation, 10 μL of 220 ng/mL recombinant human IFNγ (R&D Systems #285-IF, final rhIFNγ concentration of 20 ng/mL) was added to the cells and plates were incubated for 30 minutes at 37° C. Wells containing A549 cells, medium with 0.1% DMSO and no rhIFNγ were used as background controls. After rhIFNγ stimulation, media was aspirated from each well and 35 μL/well of iced-cold MSD lysis buffer containing protease and phosphatase inhibitors from Phospho-STAT3 Tyr705 assay kit (Meso-Scale Discovery #K150DID) was added to each well. Plates were incubated at 4° C. with shaking for 30 minutes. Cell lysates were assayed following the MSD Phospho-STAT3 Tyr705 assay kit protocol to detect pSTAT3.
(§1) Data were collected and transformed into percent inhibition and calculated using the following formula: […]

[2] = tested on: rhIL-2 stimulated STAT5 phosphorylation in isolated human T cells; test: Human T Cell Assay: Inhibition of pSTAT5; assay type: cell-based
Procedure: Human T Cell Assay: Inhibition of pSTAT5
An assay measuring the efficacy of JAK inhibitors on the functional response of recombinant human interleukin-2 (rhIL-2) stimulated STAT5 phosphorylation in isolated human T cells.
Human whole blood from individual donors was collected from the phlebotomy unit on-site. Peripheral venous blood (30-60 mL) from healthy volunteers of either sex was used as the source of T cells. T cell isolation from venous whole blood is routinely performed in a class II microbiological safety cabinet. Each sample was collected into between 3 and 6 10 mL Sodium Heparin Vacutainer tubes (BD #367874). The blood was poured into sterile 50 mL conicals (Corning #430828) and incubated with the T cell Rosette Sep Cocktail (Stemcell Technologies #15061) at 50 μL/mL antibody/blood ratio for 20 min. with shaking at room temperature. The blood/antibody mixture was then diluted 1:2 with PBS (Pfizer media prep)/2% FBS (Sigma #F4135) and 30 mL of the mixture was layered onto 15 mL Ficoll-Hypaque (GE Healthcare #17-1440-03) in 50 mL conical tubes. The tubes were then centrifuged at 1200×g for 20 min. at room temperature with no brake. Following centrifugation the T cells formed a buffy coat between the Ficoll-Hypaque and plasma layers. The plasma above the buffy coats was removed to within 5 mm of the buffy coat using a sterile Pasteur pipette. The buffy coats were then collected into fresh sterile 50 mL conical tubes containing 25 mL PBS/2% FBS (2 buffy coats per 50 mL conical). PBS/2% FBS was added to the buffy coat cells such that the final volume in the tube was 50 mL. The tubes were then centrifuged at 200×g for 15 min. at room temperature. The supernatant was discarded and the pellet re-suspended in 10-20 mL of DMEM (Pfizer media prep) Assay media/0.2% BSA (Miltenyi #130-091-376). A differential cell count was performed using a haemacytometer and cells were diluted to 1.1×10^6 T cells/ml in DMEM/0.2% BSA media. Compounds (10 mM-0.3 μM) were diluted with Hanks Balanced Salt Solution (HBSS) (Sigma #H6648) at 1:100 dilution. Immediately following cell isolation and compound dilution, 90 μl/well of T cells (˜1×10^6/ml) in assay medium (DMEM+0.2% BSA) was added to the VWR Deep well V bottom plate (#3906-520-300). 10 μl/well of compound (final concentration range of 10 μM-0.3 nM with 0.1% DMSO) or 0.1% DMSO in HBSS as controls was added to the appropriate wells. Plates were incubated for 1 hour at 37° C., 5% CO2 incubator. 10 μl of 3.3 μg/mL rhIL-2 (R&D Systems #202-IL) was added to the cells (300 ng/ml final assay concentration). Wells containing T cells, medium with 0.1% DMSO and no rhIL-2 were used as background controls. […]
as §1

[3] = target: JAK1 (Homo sapiens (Human), UniProt P23458); test: JAK Caliper Enzyme Assay at 1 mM ATP (JAK1); assay type: biochemical; conditions: Caliper assay at 1 mM ATP
JAK1, sequence (P23458 whole entry, species assumed): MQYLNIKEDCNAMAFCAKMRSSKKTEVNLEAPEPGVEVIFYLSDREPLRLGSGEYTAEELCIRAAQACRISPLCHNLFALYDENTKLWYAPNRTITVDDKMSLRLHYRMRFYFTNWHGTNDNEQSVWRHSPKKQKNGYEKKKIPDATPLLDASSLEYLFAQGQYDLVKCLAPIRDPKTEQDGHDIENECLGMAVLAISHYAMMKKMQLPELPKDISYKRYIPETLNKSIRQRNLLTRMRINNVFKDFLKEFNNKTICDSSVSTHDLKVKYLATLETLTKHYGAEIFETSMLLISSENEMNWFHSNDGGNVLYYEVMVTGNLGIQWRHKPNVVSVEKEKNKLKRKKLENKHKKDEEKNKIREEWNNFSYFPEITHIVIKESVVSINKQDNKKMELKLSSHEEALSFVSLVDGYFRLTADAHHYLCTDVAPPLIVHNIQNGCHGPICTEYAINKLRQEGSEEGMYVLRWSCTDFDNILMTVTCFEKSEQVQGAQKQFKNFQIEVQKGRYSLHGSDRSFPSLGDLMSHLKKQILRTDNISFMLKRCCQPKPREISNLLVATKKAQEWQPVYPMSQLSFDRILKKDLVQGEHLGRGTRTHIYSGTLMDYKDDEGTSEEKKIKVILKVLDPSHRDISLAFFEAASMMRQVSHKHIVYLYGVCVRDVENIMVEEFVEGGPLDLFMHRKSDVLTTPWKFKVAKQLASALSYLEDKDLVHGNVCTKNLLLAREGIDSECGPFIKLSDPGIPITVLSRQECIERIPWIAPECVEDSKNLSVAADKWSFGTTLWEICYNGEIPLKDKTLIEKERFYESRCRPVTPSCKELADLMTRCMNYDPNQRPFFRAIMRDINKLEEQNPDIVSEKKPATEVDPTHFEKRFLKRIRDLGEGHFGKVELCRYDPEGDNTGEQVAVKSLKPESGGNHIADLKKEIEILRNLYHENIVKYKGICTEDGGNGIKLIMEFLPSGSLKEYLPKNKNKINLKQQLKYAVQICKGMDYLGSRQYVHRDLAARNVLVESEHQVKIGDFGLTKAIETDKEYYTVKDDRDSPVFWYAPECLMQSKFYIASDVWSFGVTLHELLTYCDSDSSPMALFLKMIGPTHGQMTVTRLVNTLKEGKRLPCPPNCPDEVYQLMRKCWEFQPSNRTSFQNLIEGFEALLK

[4] = target: TYK2 (Homo sapiens (Human), UniProt P29597); test: JAK Caliper Enzyme Assay at 1 mM ATP (TYK2); assay type: biochemical; conditions: Caliper assay at 1 mM ATP
TYK2, sequence (P29597 whole entry, species assumed): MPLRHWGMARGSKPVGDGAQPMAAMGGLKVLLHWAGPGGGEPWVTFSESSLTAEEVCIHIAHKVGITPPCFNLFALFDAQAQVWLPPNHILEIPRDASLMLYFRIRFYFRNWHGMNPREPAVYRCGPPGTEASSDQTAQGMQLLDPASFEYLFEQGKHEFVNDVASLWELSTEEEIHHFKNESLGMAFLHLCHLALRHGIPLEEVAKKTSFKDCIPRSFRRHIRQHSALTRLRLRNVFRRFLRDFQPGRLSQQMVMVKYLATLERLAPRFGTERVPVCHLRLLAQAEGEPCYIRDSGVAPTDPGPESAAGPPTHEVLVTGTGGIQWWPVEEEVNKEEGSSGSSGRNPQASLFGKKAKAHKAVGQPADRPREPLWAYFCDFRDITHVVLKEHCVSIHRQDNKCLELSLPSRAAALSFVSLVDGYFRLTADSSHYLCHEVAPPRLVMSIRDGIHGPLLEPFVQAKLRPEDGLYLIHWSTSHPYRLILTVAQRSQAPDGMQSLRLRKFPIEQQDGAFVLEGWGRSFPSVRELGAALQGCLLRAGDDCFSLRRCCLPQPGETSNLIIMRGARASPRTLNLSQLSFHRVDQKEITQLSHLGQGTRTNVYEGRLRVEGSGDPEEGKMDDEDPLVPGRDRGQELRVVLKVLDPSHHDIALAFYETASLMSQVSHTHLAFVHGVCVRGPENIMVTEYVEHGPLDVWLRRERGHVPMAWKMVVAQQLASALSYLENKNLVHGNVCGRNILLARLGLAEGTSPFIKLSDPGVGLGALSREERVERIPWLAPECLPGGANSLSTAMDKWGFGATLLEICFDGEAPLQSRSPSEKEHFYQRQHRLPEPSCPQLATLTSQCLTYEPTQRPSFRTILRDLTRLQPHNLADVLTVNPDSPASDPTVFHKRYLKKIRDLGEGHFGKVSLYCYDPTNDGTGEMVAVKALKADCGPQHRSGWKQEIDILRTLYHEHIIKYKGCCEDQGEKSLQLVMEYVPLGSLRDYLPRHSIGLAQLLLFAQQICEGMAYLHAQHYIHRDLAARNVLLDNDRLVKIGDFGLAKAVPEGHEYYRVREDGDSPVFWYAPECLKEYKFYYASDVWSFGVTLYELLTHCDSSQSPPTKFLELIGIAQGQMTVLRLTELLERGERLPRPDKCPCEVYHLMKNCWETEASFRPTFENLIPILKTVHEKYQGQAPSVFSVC

[5] = target: JAK3 (Homo sapiens (Human), UniProt P52333); test: JAK Caliper Enzyme Assay at 1 mM ATP (JAK3); assay type: biochemical; conditions: Caliper assay at 1 mM ATP
JAK3, sequence (P52333 whole entry, species assumed): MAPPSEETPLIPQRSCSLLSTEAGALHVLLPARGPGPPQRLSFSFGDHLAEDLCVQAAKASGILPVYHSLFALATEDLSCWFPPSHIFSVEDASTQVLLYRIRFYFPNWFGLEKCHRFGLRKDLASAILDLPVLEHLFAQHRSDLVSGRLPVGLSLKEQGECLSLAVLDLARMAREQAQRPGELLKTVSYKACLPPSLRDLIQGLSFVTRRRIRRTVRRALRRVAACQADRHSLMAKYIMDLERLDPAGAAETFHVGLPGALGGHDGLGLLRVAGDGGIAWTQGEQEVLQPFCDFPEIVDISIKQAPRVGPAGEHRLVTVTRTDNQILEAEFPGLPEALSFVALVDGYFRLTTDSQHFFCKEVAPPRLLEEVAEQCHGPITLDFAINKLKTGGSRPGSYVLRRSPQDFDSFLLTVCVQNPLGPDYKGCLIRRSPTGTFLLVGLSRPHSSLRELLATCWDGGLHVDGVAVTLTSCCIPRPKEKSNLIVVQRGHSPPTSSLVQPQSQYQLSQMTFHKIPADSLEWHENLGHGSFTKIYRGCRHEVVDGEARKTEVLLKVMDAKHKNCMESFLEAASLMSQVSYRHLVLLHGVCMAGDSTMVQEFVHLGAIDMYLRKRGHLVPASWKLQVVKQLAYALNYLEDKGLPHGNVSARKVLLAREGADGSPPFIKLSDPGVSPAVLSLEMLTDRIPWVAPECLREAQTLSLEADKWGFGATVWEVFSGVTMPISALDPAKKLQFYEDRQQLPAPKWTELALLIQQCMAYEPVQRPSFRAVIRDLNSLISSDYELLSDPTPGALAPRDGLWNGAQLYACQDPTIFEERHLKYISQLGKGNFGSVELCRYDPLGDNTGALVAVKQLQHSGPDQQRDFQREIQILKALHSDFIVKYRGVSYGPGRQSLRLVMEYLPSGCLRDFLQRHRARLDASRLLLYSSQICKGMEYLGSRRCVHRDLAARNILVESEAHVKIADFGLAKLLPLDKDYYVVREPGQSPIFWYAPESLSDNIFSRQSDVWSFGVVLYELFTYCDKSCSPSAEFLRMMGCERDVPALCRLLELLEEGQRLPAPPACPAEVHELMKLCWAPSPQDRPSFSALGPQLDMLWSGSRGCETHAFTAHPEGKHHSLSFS

[6] = target: JAK2 (Homo sapiens (Human), UniProt O60674); test: JAK Caliper Enzyme Assay at 1 mM ATP (JAK2); assay type: biochemical; conditions: Caliper assay at 1 mM ATP
JAK2, sequence (O60674 whole entry, species assumed): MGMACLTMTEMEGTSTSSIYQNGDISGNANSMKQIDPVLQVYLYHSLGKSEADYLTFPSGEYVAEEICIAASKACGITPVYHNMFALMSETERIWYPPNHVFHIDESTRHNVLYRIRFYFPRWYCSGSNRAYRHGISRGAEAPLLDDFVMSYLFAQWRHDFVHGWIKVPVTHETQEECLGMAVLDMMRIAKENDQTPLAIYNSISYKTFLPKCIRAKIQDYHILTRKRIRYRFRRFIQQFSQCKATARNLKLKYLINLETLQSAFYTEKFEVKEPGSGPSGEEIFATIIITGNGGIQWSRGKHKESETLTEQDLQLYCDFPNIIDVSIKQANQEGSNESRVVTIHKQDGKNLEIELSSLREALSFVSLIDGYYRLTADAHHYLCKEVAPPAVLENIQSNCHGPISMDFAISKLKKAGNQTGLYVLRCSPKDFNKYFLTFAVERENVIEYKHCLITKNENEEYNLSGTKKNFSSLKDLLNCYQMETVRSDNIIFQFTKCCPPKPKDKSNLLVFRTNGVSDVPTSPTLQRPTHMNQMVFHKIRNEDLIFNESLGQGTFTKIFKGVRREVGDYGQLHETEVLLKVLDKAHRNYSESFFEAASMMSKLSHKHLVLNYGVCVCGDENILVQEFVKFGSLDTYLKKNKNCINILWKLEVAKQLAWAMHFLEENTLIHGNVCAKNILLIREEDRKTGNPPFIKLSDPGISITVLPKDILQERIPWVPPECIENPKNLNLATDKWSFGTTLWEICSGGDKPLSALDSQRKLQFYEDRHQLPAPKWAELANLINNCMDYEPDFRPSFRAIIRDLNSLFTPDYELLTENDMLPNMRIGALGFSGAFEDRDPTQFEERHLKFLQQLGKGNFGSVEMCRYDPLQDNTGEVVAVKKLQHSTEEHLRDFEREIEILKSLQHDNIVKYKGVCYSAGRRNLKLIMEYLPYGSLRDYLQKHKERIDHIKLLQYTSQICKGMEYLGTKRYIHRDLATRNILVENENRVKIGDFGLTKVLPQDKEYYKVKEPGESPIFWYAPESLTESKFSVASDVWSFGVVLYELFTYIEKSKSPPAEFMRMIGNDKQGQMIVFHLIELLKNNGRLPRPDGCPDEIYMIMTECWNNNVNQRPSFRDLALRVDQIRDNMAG

pIC50 ([1]; Homo sapiens) | pIC50 ([2]; T-cell) | pIC50 [3] | pIC50 [4] | pIC50 [5] | pIC50 [6] | Structure (SMILES) | pIC50 [1] | pIC50 [2]
– | – | – | – | – | – | CNC(=O)c1n[nH]c2cc(-c3cc(F)c(O)cc3CC(F)(F)F)nc(NCc3ccccc3N(C)S(C)(=O)=O)c12 [Example 20, 6-[5-fluoro-4-hydroxy-2-(2,2,2-trifluoroethyl)phenyl]-N-methyl-4-({2-[methyl(methylsulfon-yl)amino]benzyl}ami-no)-1H-pyrazolo[4,3-c]pyridine-3-carboxamide] | 7.73 | 7.50
5.52 | 5.41 | – | – | – | – | Cc1nnc(-c2n[nH]c3cc(-c4cc(F)c(O)cc4CC(F)(F)F)nc(NCc4ccccc4N(C)S(C)(=O)=O)c23)[nH]1 [Example 164, N-{2-[({6-[5-Fluoro-4-hydroxy-2-(2,2,2-trifluoroethyl)phenyl]-3-(5-methyl-4H-1,2,4-triazol-3-yl)-1H-pyrazolo[4,3-c]pyridin-4-yl}amino)methyl]phenyl}-N-methylmethanesulfonamide] | – | –
– | – | 7.68 | 6.90 | 6.49 | 7.01 | Cc1ccc(-c2nnc(-c3n[nH]c4cc(-c5cc(F)c(O)cc5CC(F)(F)F)nc(NCc5ccccc5N(C)S(C)(=O)=O)c34)[nH]2)cn1 [Example 166, N-{2-[({6-[5-fFuoro-4-hydroxy-2-(2,2,2-trifluoroethyl)phenyl]-3-[5-(6-methylpyridin-3-yl)-4H-1,2,4-triazol-3-yl]-1H-pyrazolo[4,3-c]pyridin-4-yl}amino)methyl]phenyl}-N-methylmethanesulfonamide] | 6.16 | 6.23
5.80 | 5.96 | – | – | – | – | CN(C)CCNC(=O)N1CCc2[nH]c(-c3n[nH]c4nc(-c5cc(F)c(O)cc5CC(F)(F)F)nc(NCc5cc(O)ccc5N(C)S(C)(=O)=O)c34)nc2C1 [Example 171, N-[2-(Dimethylamino)ethyl]-2-{6-[5-fluoro-4-hydroxy-2-(2,2,2-trifluoroethyl)phenyl]-4-({5-hydroxy-2-[methyl(methylsulfonyl)amino]benzyl}amino)-1H-pyrazolo[3,4-d]pyrimidin-3-yl}-1,4,6,7-tetrahydro-5H-imidazo[4,5-c]pyridine-5-carboxamide] | – | –
